Laboratory results as given in US20200282009A1, “METHODS OF TREATING DISEASES ASSOCIATED WITH VASCULAR SMOOTH MUSCLE CELL PROLIFERATION” (BioLineRx Ltd., priority 2017, published 2020).
[ ]: non-standard residue; d: D form. The star is where a group is joined. Benzoyl(4-F) = O=C(c1ccc(F)cc1)*; Cit = NC(=O)NCCC[C@H](N)C(=O)O

Assays:
miR-15a, DLEU2 = assay: Gene expression array of xenograft tumors; format: in vivo, NSG mice; conditions: treated vs un-treated tumors
From the text: RNA was isolated from tumors and subjected to gene expression profiling using GeneChip human Gene 1.0 ST Array (Affymetrix). The gene expression values were extracted using the Partek Genomics Suite 6.6 software and, after thresholding and filtering procedures, were submitted to fold change and cluster analyses (Gene Expression Omnibus [GEO] GSE94426).
(§1) Human SK-N-BE(2) cells were orthotopically injected into the left adrenal gland of 6-8 weeks old NSG mice. A 27-gauge needle was introduced through the left adrenal fat pad and 5×10∧5 cells/20 μl PBS were inoculated to the adrenal gland. NSG mice were maintained under defined flora conditions at the Hebrew University Pathogen-Free Animal Facility. Tumor growth and volume were monitored bi-weekly by using T2-weighted MRI until tumors reached the ethical limit volume and mice were randomized to drug-treated or control mice. Mice in the treated group were subjected to 2 treatment protocols. In the first treatment protocol BL-8040 (400 μg) was injected daily, starting three days following inoculation, and was continued for 35 days. In the second treatment protocol mice were monitored for 21 days. As of day 7, mice were treated with a daily injection of BL-8040 (400 μg) for 14 consecutive days.

Shy-SY5Y cells [1] = assay: Soft agar colony assay; format: cell-based, human; conditions: BL-8040 20 μM or anti-CXCR4 1 μg/ml, 14 days
Procedure: (§2) An agar base layer was prepared as follows: 45 mL RPMI plus 12% FCS was mixed with 15 mL RPMI 32 plus 12% FCS and 15 mL 2.5% agar in double-distilled water. The tumor cells were suspended in RPMI plus 10% FCS. Cell suspension was mixed in a ratio of 1:3 with the agar base solution. This mixture was then plated on top of a preformed solid agar base. CXCL12 (100 ng/mL) or BL-8040 (20 μM) or anti-CXCR4 (1 μg/ml) were added to the mixture. Fourteen days later, the number of colonies was counted in 10 different fields.

SK-N-BE(2) cells = assay: Soft agar colony assay; format: cell-based, human; conditions: BL-8040 20 μM or anti-CXCR4 1 μg/ml, 14 days
Procedure: as §2

[2] = tested on: miR-15a, miR-16-1, BCL-2, CCND1, c-myc in Shy-SY5Y cells; assay: qPCR of treated cells in-vitro; format: cell-based, human; conditions: 20 μM, 24 hours
Procedure: (§3) Total RNA from various cell lines and mouse tissues was isolated using Trizol reagent (Invitrogen) according to the manufacture's protocol, followed by DNaseI treatment using the DNaseI Kit where needed (Ambion). The concentrations were measured by Nanodrop (ND spectrophotometer) and the integrity was analyzed by gel electrophoreses on 1% agarose gel.
(§4) cDNA was synthesized from 0.5-1 μg total RNA using the Quanta Biosciences qScript™ cDNA Synthesis Kit (95047-100) for mRNA analysis, and using the qScript™ microRNA cDNA Synthesis Kit (95107-100) for miRNAs analysis. Quantiative PCR (qPCR) of miRNAs and mRNA was performed using the CFX384, C1000 touch thermal cycler (Bio-Rad) and a SYBR Green PCR Kit: Quanta Cat. #84018 and #84071, respectively. The fold expression and statistical significance were calculated using the 2-ΔΔ Ct method. All experiments were performed in triplicate.

[3] = tested on: miR-15a, miR-16-1, BCL-2, CCND1, c-myc in SK-N-BE(2) cells; assay: qPCR of treated cells in-vitro; format: cell-based, human; conditions: 20 μM, 24 hours
Procedure: as §3, §4

Shy-SY5Y cells [4] = assay: Cell survival assay (PI staining, FACS); format: cell-based, human; conditions: BL-8040 0-20 μM or AMD3100 10 and 20 μM, 24 hours
Procedure: A total of 1×10^5 cells/mL were cultured in 24-well plates with […] RPMI 1640 medium supplemented with 10% FCS. 24 hours later, the medium was changed to RPMI 1640 supplemented with either 1% FCS, with BL-8040 or AMD3100 or ABT199. Then 24 hours later, the cells were harvested, washed, and stained with PI (Sigma). The number of live cells was counted and analyzed using FACS analysis.

[5] = tested on: SK-N-BE(2) orthotopic xenograft tumors; assay: In-vivo orthotopic NB model (tumor growth, weight, survival); set-up: species or system NSG mice
Procedure: as §1
Magnetic resonance imaging (MRI) scans were performed on a horizontal 4.7T Biospec spectrometer (Bruker Medical) with a 3.5-cm birdcage coil. Mice were anesthetized with Isoflurane (Nicholas Piramal, India; 2% in a mixture of 30:70 O2:N2O). Tumor volume was assessed bi-weekly using T2-weighted (T2W) fast spin echo images (repetition time=2,000 ms; echo time=37 ms; in plane resolution=117 μm; slice thickness-1 mm). Tumor volume was manually assessed using Analyze-7.0 (BIR). For each subject, an exponential growth curve was fitted to the tumor volume data points (Matlab software).
Data are presented as means±SD or ±SE. Statistical comparison of means was performed by a two-tailed unpaired Student's t test. Differences with a P<0.05 were determined as statistically significant. Statistical analysis of NB tumor mice survival following early treatment was performed using the Mantel-cox test.

4F-benzoyl-Arg-Arg-Nal-Cys-Tyr-Cit-Lys-DLys-Pro-Tyr-Arg-Cit-Cys-Arg-NH2 ({Benzoyl(4-F)}-RR[Nal]CY[Cit]K[dK]PYR[Cit]CR-NH2; not fully specified; printed as 4F-benzoyl-Arg-Arg-Nal-Cys-Tyr-Cit-Lys-DLys-Pro-Tyr-Arg-Cit-Cys-Arg-NH2; cysteine pairing not given here) [BL-8040]
expression of miR-15a and its parent gene DLEU2 (gene chip array) (miR-15a, DLEU2): increased expression
colony formation (Shy-SY5Y cells [1]): reduces colony formation
colony formation (SK-N-BE(2) cells): reduces colony formation
BCL-2 mRNA (qPCR) [2]: reduced
CCND1 mRNA (qPCR) [2]: reduced only in the Shy-SY5Y cells
c-myc mRNA (qPCR) [2]: reduced significantly
miR-15a level (qPCR) [2]: significant increase
miR-16-1 level (qPCR) [2]: not miR-16-1
BCL-2 mRNA (qPCR) [3]: reduced
CCND1 mRNA (qPCR) [3]: reduced only in the Shy-SY5Y cells
c-myc mRNA (qPCR) [3]: reduced significantly
miR-15a level (qPCR) [3]: significant increase
miR-16-1 level (qPCR) [3]: not miR-16-1
cell viability (viable cells counted) (Shy-SY5Y cells [4]): decreased viability
reduction in tumor weight ([5]; 400 μg s.c. daily for 14 days from day 7, harvested day 21): 3 fold
survival of animals, average ([5]; 400 μg s.c. daily for 35 days from day 3, controls 35 days): 61 days
tumor growth (tumor volume, MRI) ([5]; 400 μg s.c. daily for 35 days from day 3, exponential growth after discontinuation): tumor growth attenuation
